In patent US20080004313A1, “Preparation of crystalline polymorphs of rimonabant hydrochloride” (priority 2006, published 2008):

Assay: Stability study of bulk material (stability-indicating HPLC, storage under controlled temperature and humidity)
Format: physicochemical
Method: The stability of crystalline polymorphic forms or solvates of rimonabant hydrochloride of the present invention may be determined using conventional quantitative analytical methods. For example the stability of crystalline polymorph forms or solvates of rimonabant hydrochloride may be determined by using accelerated stability conditions, wherein the test compounds are stored under controlled conditions of temperature and humidity over known periods of time, e.g., 40° C./75% relative humidity. Quantitative analysis of the test compounds by high performance liquid chromatography method or by X-ray powder diffraction pattern, DSC, IR or TGA, against appropriate reference standards before, during and after the storage period allows the stability of the test compound to be determined.
The stability of polymorph forms or solvate forms (Form A, B, C, D and E) of crystalline rimonabant hydrochloride bulk material and tablets was assessed by storing samples for up to 6 or 12 weeks at 25° C./60% RH or 40° C./75% RH. Changes were monitored using a stability-indicating HPLC method. Results were calculated by normalized peak area (npa). Degradants were identified by comparison of their relative retention times against impurity standards.

Cc1c(C(=O)NN2CCCCC2)nn(-c2ccc(Cl)cc2Cl)c1-c1ccc(Cl)cc1.Cl [Form D, N-piperidino-5-(4-chlorophenyl)-1-(2,4-dichlorophenyl)-4-methyl-3-pyrazolecarboxamide hydrochloride]
stability (time) (bulk material, elevated temperatures and humidity): 3 months | physical and chemical stability (solid state): physically and chemically stable
